One molecule from patent US9611246B2, “Compositions, apparatus, systems, and methods for resolving electronic excited states” (HALLSTAR INNOVATIONS CORP., priority 2012, dated 2017) can be followed below.

This experiment in a line: Singlet oxygen phosphorescence from protoporphyrin IX dimethyl ester in air saturated CDCl3, 532 nm. Conditions: MePPIX 25 μM. The experiment is classed as physicochemical. As to the method: Singlet oxygen phosphorescence experiments were performed to investigate if the large differences in triplet quenching rate constants have an impact on the observed singlet oxygen yields. The dimethyl ester derivative of PPIX (MePPIX, Formula IV(c)) was selected as sensitizer, because of better solubility in a solvent with long singlet oxygen lifetime (CDCl3).
The excited state properties of protoporphyrin IX should not be effected by the methyl ester functionality. Air saturated CDCl3 of MePPIX were excited with a pulsed Nd-YAG laser with visible light at 532 nm, where the stabilizers are mostly transparent. […] The lack of singlet oxygen suppression is consistent with the lack of observable quenching of singlet or triplet excited states of PPIX by alkoxy crylene.

As for `COC(=O)C(C#N)=C1c2ccccc2C(=O)c2ccccc21` [Formula II(a)(1)], the “suppression of singlet oxygen generation” value was “largest suppression”.
